# From a melting point compilation (Tetko et al.; mined from patent text by program, amines drawn as free bases though some values may be those of a salt)
row,melting point [°C],SMILES
1,88 to 90,CC(C)(C)OC(=O)COCCCCS(=O)(=O)c1cnc(-c2ccccc2)c(-c2ccccc2)n1
2,70 to 72,CC(=O)c1cccc(OCCCCCC(=O)O)c1
3,176,CC1=NC(Cc2ncc(Br)cn2)C(Br)=CN1 (stereo not drawn)
4,198 to 200,C[N+]1([O-])CC(CO)(c2ccccn2)C(=O)c2ccccc21 (stereo not drawn)
5,151 to 152,O=C(O)CCCCOc1ccc2oc3ccccc3c(=O)c2c1
6,185 to 187,CCc1nc(S(=O)(=O)Nc2c(Cl)cccc2Cl)nn1-c1ccccc1
7,164,N#CCOc1cc2c(cc1-c1ccc(F)cc1)NC(=O)CC(c1cccc(-n3ccnc3)c1)=N2
8,188,N=C(N)c1ccc(CC23CCCN2C(=O)N(c2cc(Cl)cc(Cl)c2)C3=O)cc1 (stereo not drawn)
9,109 to 110,COc1cc(CCCC2SC(=O)NC2=O)ccc1OCc1nc(-c2ccco2)oc1C (stereo not drawn)
10,243 to 244,c1cn(-c2cc(-n3ccnc3)ncn2)cn1
11,140 to 141,CN(CCC(=O)Nc1ccc2[nH]ncc2c1)Cc1ccccc1
12,254 to 255,NS(=O)(=O)c1ccc(-n2nc(C(F)(F)F)cc2-c2nc3ccc(Cl)cc3s2)cc1
13,151 to 153,COc1ccc2c(c1)sc1nc(C(O)C3CC3)cn12 (stereo not drawn)
14,118 to 120,Cc1cc(-c2cc(COS(C)(=O)=O)c(=O)n(CC=Cc3ccc(Cl)cc3)n2)ccc1F
15,194 to 195,CC(C)NC(=S)Nc1ccc(Cl)c(-c2ccnc3c(C(=O)c4cccs4)cnn23)c1
16,164 to 165,Cc1nc2cccc(CCN3CCC(c4noc5cc(F)ccc45)CC3)c2c(=O)[nH]1
17,160 to 170,CCCN1c2ccccc2C(=O)N(CC(=O)O)c2cc(Cc3c[nH]c4ccccc34)ccc21
18,216 to 218,COc1cc2occ(-c3ccccc3)c(=O)c2c(Cl)c1Cl
19,118,CC(CO)c1ccc(-c2ccc(F)cc2F)c(O)c1 (stereo not drawn)
20,71.5 to 72,CC(C)OC(=O)C=CC(=O)c1ccc(Oc2ccccc2)cc1

row,melting point [°C],SMILES
1,112 to 113,Cc1cc2c([C@@H]3C[C@H]3CNC(=O)c3ccccc3)cccn2n1 (relative stereo)
2,67,CCCCCCc1ccc(C#Cc2ccc(Br)cc2)cc1
3,153 to 155,NC(=O)CNc1ncccc1N
4,262,NS(=O)(=O)c1ccc(-c2cc(-c3nc(-c4ccc(C(F)(F)F)nc4)cc(C(F)(F)F)n3)ccn2)s1
5,175 to 177,Cn1c(COc2ccc(CC3SC(=O)NC3=O)cc2)nc2ccc(Oc3ccc(NC(=S)NCc4ccccc4)cc3)cc21 (stereo not drawn)
6,258 to 260,Cc1nc2nc(SCc3ccccc3)nn2c(O)c1Cl
7,167 to 169,O=Cc1cc2c3ccccc3ccc2c2ccccc12
8,225 to 226,CC(C)n1nc(-c2sc(NC(=O)c3ccc(F)cc3)nc2-c2ccccc2)ccc1=O
9,97,CCCCOc1cc(/C=C(\OCC)C(=O)O)ccc1OCCc1ccc(OS(C)(=O)=O)c(OC)c1
10,125 to 126,COc1cc(Br)c2c(c1)CCCN2
11,158 to 160,COc1ccc(C(C)(C)C)cc1NC(=S)Nc1cccc2ccccc12
12,243,CC1(C)Oc2ccc(C#N)cc2C(n2ccccc2=O)C1O (stereo not drawn)
13,96 to 100,COC(=O)CCC(=O)c1ccc(-c2ccc(OC)cc2)cc1
14,238 to 240,COc1cc2c3c(n(C)c(=O)c2cc1OC)-c1cc(OCc2ccccc2)c(OCc2ccccc2)cc1C3=O
15,154 to 156,O=Cc1ccc2cc(O)ccc2c1
16,177 to 180,CCOc1ccccc1-c1nc2c(C)cccc2c(=O)[nH]1
17,180 to 183,COc1ccc(C(=O)Nc2ccccc2)cc1NS(=O)(=O)c1cccs1
18,156 to 158,COc1cccc(NC(=O)c2ccccc2[N+](=O)[O-])c1
19,111,COc1ccc(N2CCN(c3ccc(N)cc3)CC2)cn1
20,265 to 268,CCOC(=O)C(O)C1OC(n2cnc3c(N)ncnc32)C(O)C1O (stereo not drawn)

row,melting point [°C],SMILES
1,175 to 176,COc1ccc(S(=O)(=O)Nc2ccc(Cl)cc2/C=C/c2ccncc2)cc1
2,165 to 167,OC(c1ccc2c(c1)COCO2)c1cn(C(c2ccccc2)(c2ccccc2)c2ccccc2)cn1 (stereo not drawn)
3,156 to 157,O=C(O)CCCCCSc1ccc(-c2ccc(Cl)cc2)cc1
4,181 to 182,COC(=O)c1cccc(C)c1NS(=O)(=O)c1nc2nc(C)cc(C)n2n1
5,83,COc1cccc(OC(=O)/C=C/c2ccc(C(C)(C)C)cc2)c1
6,202 to 203,CCOC(=O)c1ccc(NC(=O)/C=C/c2cnn(C)c2-c2ccc(F)cc2)cc1
7,> 330,O=C(O)c1ccc(-c2ccnnc2)cc1
8,205 to 206,CC(=O)Nc1nc(CCc2ccc(C#N)cc2)cs1
9,236 to 237,O=C1CN2Cc3cc(OCCCCCCO)ccc3N=C2N1
10,210 to 218,Cc1ccc(Cn2c(=O)[nH]c3cc(Cl)cc(Cl)c3c2=O)cc1
11,169 to 172,Cc1cc(C)n(-c2nc(Nc3cc(C(F)(F)F)cc(C(F)(F)F)c3)c3ccccc3n2)n1
12,135 to 136,COc1cc2c(cc1OC)C(CN1CCN(c3ccc(F)cc3)CC1)OCCC2 (stereo not drawn)
13,97.5 to 99.5,CC(C)N1C(=O)c2ccccc2N(C(=O)C(C)(C)C)S1(=O)=O
14,90.5 to 91,COc1cc2c(cc1OC)CCC=C2
15,179,CN1CCC(=C2c3cc(Br)n(C)c3CCn3ccnc32)CC1
16,162 to 163,CCCN1CC(c2cccc(Br)c2)=C(c2ccc(S(N)(=O)=O)cc2)C1=O
17,268 to 270,Cc1cccc(-c2[nH]c(C(C)C)nc2-c2ccc(F)c(-c3c[nH]cn3)c2)n1
18,212 to 214,Cc1n[nH]c(Cn2ccnc2C)c1Oc1cc(Cl)cc(C#N)c1

# Second part, the molecule before the results:
row,SMILES,melting point [°C]
1,O=C1c2c(O)cccc2C(=CCc2ccccc2)c2cccc(O)c21,128 to 129
2,NC(=O)CCCCCN1CCN(c2csc3cc(F)ccc23)CC1,141 to 142
3,Cc1nc(N)nc(N)c1I,154 to 156
4,CN(C)CC=C(c1ccc(-c2ccccc2)cc1)c1ccc(-c2ccccc2)cc1,94 to 95
5,N#CC(C(=O)Nc1ccccc1)C(=O)c1nn(-c2ccccc2)c2c1CSc1ccc(C(=O)NCC(=O)O)cc1-2 (stereo not drawn),244 to 250
6,CCn1c(=O)[nH]c(=O)c2nc(-c3ccc(/C=C/C(=O)O)cc3)[nH]c21,> 300
7,O=Cc1ccc(OC2OC(CO)C(O)C(O)C2O)c2ccccc12 (stereo not drawn),< 255
8,CC(=O)NC(Cc1csc2ccccc12)C(CCc1cc(C(F)(F)F)cc(C(F)(F)F)c1)=NO (stereo not drawn),200 to 201
9,Cc1nc(Br)n(C)c1-c1nc(C2CC2)no1,81
10,CN(C)C(=S)SC(C[N+](=O)[O-])c1ccc(Cl)s1 (stereo not drawn),76 to 77
11,CCCCC(NC(=O)C1CC1(C)C)C(=O)OC(C)(C)C (racemic),52 to 65
12,CC(C)(C)c1cc(C(c2ccc(C#N)cc2)N2CCCCC2)cc(C(C)(C)C)c1O (stereo not drawn),139 to 140
13,CS(=O)(=O)c1sccc1S(N)(=O)=O,242 to 244
14,CCCN1CCc2c(NC(C)=O)ccc(Br)c2C1,144 to 145
15,CC(=O)c1c(C)[nH]c(CC(C)(C)C)c1C,156 to 163
16,Cc1cccc(NC(=O)NCC(=O)N(CC(=O)OC(C)(C)C)c2ccc([N+](=O)[O-])cc2)c1,152
17,CCC(=O)N(CC)c1cccc(C(=O)C=CN(C)C)c1,105 to 107
18,CCCCCNC(=O)N(C)c1cccc(-c2ccc(C=C(OC)C(=O)O)cc2)c1,144
19,CS(=O)(=O)c1ccc(-c2cc(/C=C\CCO[N+](=O)[O-])nn2C2CCCCC2)cc1,129 to 130
20,CC(=O)NC12CCC(CC1)C2(C)C,133 to 134
21,CCCCCCCCCOC(=O)Oc1ccc(C(=O)O)cc1,118 to 120
22,O=C(Oc1c(Br)c(Br)c(Br)c(Br)c1Br)c1ccccc1CCl,201 to 205
23,N#CCCn1[nH]c(C#N)c(N=Nc2ccc(S(=O)(=O)Cl)cc2)c1=O,178 to 180

row,SMILES,melting point [°C]
1,COc1cc2c(C)c(C)sc2c(Cl)c1Cl,159 to 160
2,COC(=O)c1c(F)c(F)c(N=[N+]=[N-])c(F)c1F,53.6 to 54.3
3,CC1(C)OC(=S)Nc2ccc(-c3ccc(F)c(F)c3)cc21,209 to 211
4,COC(=O)c1ccc(COC(C)=O)nc1C1=NC(C)(C(C)C)C(=O)N1C(C)=O (stereo not drawn),111 to 112
5,COc1ccc2c(c1)OC(CN)C2 (stereo not drawn),> 220
6,CCCCCCCCCCCCCCCCSC(=O)Nc1ccc(NC(=O)NS(=O)(=O)c2ccc(OC)cc2)cc1,197
7,COc1c(C)c2c(c(OS(=O)(=O)c3ccc(C)cc3)c1CC1=C(C)C(=O)CC1)C(=O)OC2,65.4 to 66.8
8,CC(=O)NC1CN(C)S(=O)(=O)c2sc(S(N)(=O)=O)cc21 (stereo not drawn),252 to 253
9,CCCCCCCCC#CCC#CCC#CCS(=O)(=O)CC(=O)O,132
10,COc1cc(NC(C)=O)c(Cl)c(C(F)(F)F)c1Cl,143 to 144
11,CCCCCCCCCCCCCCCCCCC(COC(C)=O)(COC(C)=O)NC(C)=O,90 to 91
12,NC(=O)c1ccc(CCCOCCCCCCBr)cc1,79 to 82
13,COC(=O)c1c(I)ccc2c(=O)c3ccccc3[nH]c12,202 to 204
14,O=C1CC2(C(=O)N1)C(=O)N(Cc1ccc(Br)cc1F)C(=O)c1ccccc12 (stereo not drawn),112 to 114
15,OCC1=C(c2cccc3sccc23)N2CCN=C2S1,145 to 149
16,CC(C)=CCc1cc(C(=O)C=Cc2ccc(O)cc2)c(O)cc1O,157 to 158
17,O=C(O)C1CSC(C2CC3C=CC2C3)N1 (mixture of isomers),220
18,Nc1ccc(C(c2ccccc2)(c2ccc(N)cc2)C(F)(F)F)cc1,217 to 218
19,COC(=O)c1ccc(CN2N=C(C(C)(C)C)CC2=O)cc1,161 to 162
20,CN(C)c1cc2nc(C(C)(C)C)sc2cc1NC(N)=S,275 to 280
21,Cc1[nH]c(=O)c(C#N)c2c1CC(c1ccccc1)CC2 (stereo not drawn),> 290
22,CC(=O)NCCCCn1cnc2c(N)nc(C)c(C)c21,217 to 219
